Laboratory results as given in PubChem BioAssay AID1963851 (Molecular Pharmacology Branch, DTP, NCI, 2024).
Several values for one entry are separate records, joined by “and”; a condition that tells them apart may be missing. Identical values can stand only once.

System: 188146-221-R-J1-PDC complex spheroid viability
Assay: Anticancer human tumor 188146-221-R-J1-PDC patient-derived colon adenocarcinoma cell line growth inhibition [POLQ]
Conditions: for viability, T/C: stronger effect = lower value; for IC50: curve of compound
Experimental: Multicellular complex tumor spheroid response to Polymerase (POL) inhibitors (novobiocin, ART-558, RP6685) in combination with a variety of drugs and investigational agents in selected tumor cell lines
The POL inhibitors (novobiocin, ART-558, and RP6685) were evaluated both individually and in combination with standard of care and investigational anticancer small molecules within a complex spheroid model of solid tumors. . Complex spheroids include a stromal component modeled by human endothelial cells (HUVEC) and fibroblasts modeled by human mesenchymal stem cells (MSCs). The concentration ranges selected for each drug and investigational agent were based upon clinically achievable concentrations if the clinical Cmax of the agent was known.
Compounds. The drugs and investigational agents: novobiocin (NSC847541), ART-558 (NSC835418), RP-6685 (NSC848927), peposertib (NSC802822), ceralasertib (NSC780249), elimusertib (NSC800525), camonsertib (NSC841442), AZD-1390 (NSC803789), olaparib (NSC753686), talazoparib (NSC767125), rucaparib (NSC756644), sotorasib (NSC818433), MRTX-1133 (NSC836407), SN-38 (NSC673596), topotecan (NSC609699), epotoside (NSC141540), doxorubicin (NSC123127), gemcitabine (NSC613327), 5-fluorouracil (NSC19893), paclitaxel (NSC125973), vemurafenib (NSC761431), MSA-2 (NSC828583), SN-011 (NSC837082), adavosertib (NSC754352), prexasertib (NSC758257), carboplatin (NSC241240) and oxaliplatin (NSC266046), were obtained from the National Cancer Institute (NCI) Developmental Therapeutics Program Chemical Repository (21). The FDA-approved anticancer drug set is available from the Developmental Therapeutics Program at https://dtp.cancer.gov/organization/dscb/obtaining/. […] The stock solutions were prepared in dimethyl sulfoxide (DMSO, Sigma-Aldrich, St. Louis, MO, cat. D2650), except for the platinum compounds which were prepared in saline (Quality Biological, Gaithersburg, MD, cat. 114-055-101), at 800-fold the tested concentration and stored at -70 degrees C prior to their use. All drugs and investigational agents were tested over a range starting from a high concentration at or near the clinical Cmax and decreasing in half-log increments. If the clinical Cmax for an agent had not been determined, the highest concentration tested was 10 microM, except for SN-38, which was tested at a high concentration of 1 microM.
Cell Culture. All cells were maintained in an incubator at 37 degrees C and 5% CO2 with 95% humidity. The PDC lines were cultured according to standard operating procedures established by the NCI PDMR (https://pdmr.cancer.gov). Table 3 of the manuscript, lists the cell lines along with the number of the three cell types plated to form the mct-spheroids and media for tumor cell growth. After thawing, all PDC lines, except 997537-175-T-J1-PDC and 415267-285-R-J2-PDC, were cultured in Matrigel-coated flasks prepared with a working solution of 1X Ham's F-12 nutrient mix, without supplementation (Thermo Fisher Scientific, cat. 11765054), 100 U/mL penicillin-streptomycin (Thermo Fisher Scientific, cat. 15140122), and 2.5% Matrigel (Corning Inc., Corning, NY, cat. 354248) for the first three passages. The two PDC lines 997537-175-T-J1-PDC and 415267-285-R-J2-PDC were cultured on uncoated flasks. The 857933-349-R-J2-PDC line was cultured in 6C/Colon 1B media containing advanced DMEM/F-12 (Thermo Fisher Scientific, cat. 12634028), 10 mM HEPES (Thermo Fisher Scientific, cat. 15630080), 1X GlutaMAX supplement (Thermo Fisher Scientific, cat. 35050061), 0.1 mg/mL primocin (InvivoGen, San Diego, CA, cat. ant-pm-2), 10% defined fetal bovine serum, heat inactivated (HyClone Laboratories Inc., Logan, UT, cat. SH30070.03HI), 50% L-WRN conditioned media (ATCC, cat. CRL-3276), 1.25 mM N-Acetyl-L-cysteine (Sigma-Aldrich, cat. A9165), 10 mM nicotinamide (Sigma-Aldrich, cat. N0636), 1X B-27 supplement (Thermo Fisher Scientific, cat. 17504044), 1X N-2 supplement (Thermo Fisher Scientific, cat. […]
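Also: spheroids exposed to compounds for seven days.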
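For viability, T/C in this document: 100% = DMSO vehicle control viability.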

| SMILES | viability, T/C (compound 0.0316 µM) | viability, T/C (compound 0.1 µM) | viability, T/C (compound 0.316 µM) | viability, T/C (compound 1 µM) | viability, T/C (compound 3.16 µM) | viability, T/C (compound 10 µM) | IC50 | viability, T/C (compound 0.00316 µM) | viability, T/C (compound 0.01 µM) | viability, T/C (compound 0.00949 µM) | viability, T/C (compound 0.03 µM) | viability, T/C (compound 0.0949 µM) | viability, T/C (compound 0.3 µM) | viability, T/C (compound 0.949 µM) | viability, T/C (compound 3 µM) | viability, T/C (compound 0.000316 µM) | viability, T/C (compound 0.001 µM) |
| --- | --- | --- | --- | --- | --- | --- | --- | --- | --- | --- | --- | --- | --- | --- | --- | --- | --- |
| C#Cc1c(F)ccc2cc(O)cc(-c3ncc4c(N5CC6CCC(C5)N6)nc(OCC56CCCN5CC(F)C6)nc4c3F)c12 (stereo unspecified) | 100% and 103% and 99.2% | 97.1% and 105% and 99.9% | 90.5% and 81.7% and 89.8% | 96.4% and 100% (2×) | 98.2% and 99.9% and 104% | 89.1% and 102% and 85.3% | > 10000 nM | – | – | – | – | – | – | – | – | – | – |
| C=CC(=O)N1CCN(c2nc(=O)n(-c3c(C)ccnc3C(C)C)c3nc(-c4c(O)cccc4F)c(F)cc23)C(C)C1 (stereo unspecified) | 113% and 101% and 99.7% | 104% and 89.7% and 107% | 95.9% and 90.8% and 87.1% | 109% and 113% and 108% | 92.2% and 92.1% and 101% | 68% and 102% and 77.7% | > 10000 nM | – | – | – | – | – | – | – | – | – | – |
| C=CCn1c(=O)c2cnc(Nc3ccc(N4CCN(C)CC4)cc3)nc2n1-c1cccc(C(C)(C)O)n1 | 94.6% and 104% and 95.5% | 98.4% and 100% and 113% | 99% and 117% and 98.4% | 60.4% and 62.4% and 59% | – | – | > 1000 nM | 96.3% and 101% and 120% | 104% and 117% and 103% | – | – | – | – | – | – | – | – |
| CC(=O)O[C@H]1C(=O)[C@@]2(C)[C@H]([C@H](OC(=O)c3ccccc3)[C@]3(O)C[C@H](OC(=O)[C@H](O)[C@@H](NC(=O)c4ccccc4)c4ccccc4)C(C)=C1C3(C)C)[C@]1(OC(C)=O)CO[C@@H]1C[C@@H]2O | – | – | – | – | – | – | 12.2 nM and 13.3 nM and 17.4 nM | – | – | 58.2% and 63% and 74.9% | 20.7% and 18.6% and 27.6% | 13.3% and 12.8% and 9.47% | 11.7% and 11.9% and 11.2% | 15.4% and 12.2% and 9.82% | 13.5% and 12.8% and 9.87% | – | – |
| CC(C)n1c(=O)n(C)c2cnc3cc(F)c(-c4ccc(OCCCN5CCCCC5)nc4)cc3c21 | 96.9% and 102% and 108% | 111% and 96.7% and 100% | 88.3% and 89.4% and 92.5% | 105% and 101% and 110% | 104% and 106% and 88.8% | 77% and 95.2% and 71.2% | > 10000 nM | – | – | – | – | – | – | – | – | – | – |
| CC1COCCN1c1cc(-c2ccnn2C)c2ccnc(-c3ccn[nH]3)c2n1 (stereo unspecified) | 86.5% and 92.4% and 75% | 74.4% and 67.1% and 60.5% | 42.4% and 42.7% and 43.7% | 19.7% and 27.9% and 21.6% | 17% and 16.9% and 14.9% | 14.1% and 11.3% and 13.9% | 239 nM and 230 nM and 198 nM | – | – | – | – | – | – | – | – | – | – |
| CC1COCCN1c1cc(C2(O)CC3CCC(C2)O3)c2cnn(-c3ccn[nH]3)c2n1 (stereo unspecified) | 92% and 93.4% and 87% | 84.8% and 75% and 73.3% | 44.9% and 50.6% and 53.1% | 28.2% and 28.1% and 26% | 21.8% and 18.4% and 19.3% | 6.59% and 6.67% and 8.27% | 321 nM and 329 nM and 342 nM | – | – | – | – | – | – | – | – | – | – |
| CC1COCCN1c1cc(C2(S(C)(=N)=O)CC2)nc(-c2ccnc3[nH]ccc23)n1 (stereo unspecified) | 100% and 105% and 99.8% | 95.1% and 99.5% and 101% | 89.3% and 114% and 98% | 94.8% and 91.6% and 89.8% | 68.1% and 61.6% and 60.5% | 23.7% and 27.7% and 21.9% | 5050 nM and 4620 nM and 4330 nM | – | – | – | – | – | – | – | – | – | – |
| CCCS(=O)(=O)Nc1ccc(F)c(C(=O)c2c[nH]c3ncc(-c4ccc(Cl)cc4)cc23)c1F | 104% and 98.2% and 96.2% | 108% and 92.2% and 102% | 111% and 95.7% and 82.7% | 90.1% and 79.7% and 80.1% | 83.9% and 85.2% and 81.8% | 40.6% and 36.2% and 25.4% | 7790 nM and 7060 nM and 5830 nM | – | – | – | – | – | – | – | – | – | – |
| CC[C@@]1(O)C(=O)OCc2c1cc1n(c2=O)Cc2cc3c(CN(C)C)c(O)ccc3nc2-1 | 101% and 92.7% and 97.3% | 71.1% and 63.3% and 63.1% | – | – | – | – | > 100 nM | 87.8% and 92.4% and 88.8% | 103% (2×) and 107% | – | – | – | – | – | – | 101% and 91.4% and 104% | 99.7% and 100% and 110% |
| CCc1c2c(nc3ccc(O)cc13)-c1cc3c(c(=O)n1C2)COC(=O)[C@]3(O)CC | 35.4% and 45.1% and 29.7% | 18% and 23.1% and 19.6% | 12% and 12.2% and 13.3% | 6.11% and 8.93% and 6.3% | – | – | 20.9 nM and 25.1 nM and 19 nM | 98.1% and 104% and 88.5% | 73.8% and 73.1% and 74.3% | – | – | – | – | – | – | – | – |
| CCc1cc2c(N3CCc4c(cc(Cn5ccnc5)cc4-c4cn(C)nc4C(F)(F)F)C3=O)cc(C)nc2c(OC)n1 | 114% and 97.3% and 106% | 114% and 95.4% and 108% | 95.9% and 83.1% and 98.9% | 85.5% and 80.4% and 92.5% | 71% and 77.1% and 66.7% | 41.5% and 47.2% and 47.6% | 7260 nM and 9620 nM and 8600 nM | – | – | – | – | – | – | – | – | – | – |
| CCc1cc2c(N3CCc4c(cc(Cn5ccnc5)cc4-c4cn(C)nc4C(F)(F)F)C3=O)ccnc2c(OC)n1 | 103% and 102% and 97.4% | 100% and 84.5% and 101% | 100% and 99.4% and 92.2% | 92.7% and 93.4% and 98.2% | 69.5% and 74% and 71.6% | 48.1% and 54.2% and 57.5% | 9010 nM and > 10000 nM | – | – | – | – | – | – | – | – | – | – |
